Columns and labels:
human VMAT1 transporter = biological target: T1, human VMAT1 transporter (Homo sapiens, UniProt P54219); test: uptake in cells expressing VMAT1; type: cell-based; details: for inhibitory activity on uptake through VMAT1: concentrations up to 10 μM
T1 construct: expressed in transfected cells
T1 sequence (P54219 1-525): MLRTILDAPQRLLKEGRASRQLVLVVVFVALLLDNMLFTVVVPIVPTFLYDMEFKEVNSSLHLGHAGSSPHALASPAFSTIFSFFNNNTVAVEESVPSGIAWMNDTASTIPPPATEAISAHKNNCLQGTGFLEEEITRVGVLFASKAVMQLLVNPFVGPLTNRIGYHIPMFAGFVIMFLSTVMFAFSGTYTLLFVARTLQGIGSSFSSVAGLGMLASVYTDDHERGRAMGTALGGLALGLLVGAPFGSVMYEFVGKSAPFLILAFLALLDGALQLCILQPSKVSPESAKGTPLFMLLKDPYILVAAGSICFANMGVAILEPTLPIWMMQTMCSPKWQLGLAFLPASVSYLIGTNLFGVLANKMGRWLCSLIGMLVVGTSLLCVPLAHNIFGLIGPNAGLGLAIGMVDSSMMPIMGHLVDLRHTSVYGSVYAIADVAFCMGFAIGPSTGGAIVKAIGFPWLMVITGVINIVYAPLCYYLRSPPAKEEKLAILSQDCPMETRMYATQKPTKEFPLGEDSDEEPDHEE
Description: None of the TBZ or VBZ metabolites had any affinity for the monoamine transporters DAT, SERT or NET. To complete the selectivity profile for VMAT2, the functional activity for the human VMAT1 transporter of these compounds was tested in cells expressing VMAT1.

[1] = plasma concentrations of circulating metabolites; type: in vivo; details: after VBZ
[2] = case reports of hypersensitivity and dermatological reactions; type: in vivo, human
Text: A total of 17 cases of hypersensitivity reaction and/or dermatological findings and evidence for possible causal relationship with VBZ have been reported either spontaneously (6) or after solicitation (11). Of these 17 cases, 14 cases had both hypersensitivity reaction with dermatological findings (5 were serious and 9 were non-serious).
In these 14 cases, there was a reasonable temporal relationship between the initiation of the drug and the onset of events. In 1 case, both dechallenge and rechallenge was positive. In 2 cases, the events worsened when the drug was continued and the events resolved on discontinuation of VBZ. In 3 cases, dechallenge was considered as positive. In 7 cases, the event resolved or was resolving following discontinuation of drug and receiving appropriate treatment, implying a causal association. Additionally, among these 7 cases, there was 1 case in which the event re-occurred on readministration of the drug. In the remaining 1 case, the events started immediately after starting VBZ, the subject continued taking VBZ and the event continued; therefore, a causal association between the drug and the event could not be ruled out.
Of the 17 cases, there were 2 cases in which the patients experienced hypersensitivity reaction with evidence for a possible causal relationship with VBZ, but without dermatological findings. Both these cases were non-serious. In 1 case, dechallenge was positive and in another case, the event re-occurred with their second dose of drug, implying a causal association between the drug and the events.
Of the 17 cases, there was 1 case in which the patient experienced only dermatological findings with evidence for a possible causal relationship to VBZ, but without evidence of other hypersensitivity reaction. This case was non-serious and dechallenge was positive in this case. In view of the information reported in these 17 cases there appears to be a possible causal relationship between the events and administration of VBZ. […] 2017.
Based on the case reports received through 10 Oct.

[3] = ptosis, in vivo surrogate measure
[4] = prolactin release, in vivo surrogate measure

Row | Compound | inhibitory activity on uptake through VMAT1 (human VMAT1 transporter) | non-serious cases with hypersensitivity reaction and dermatological findings ([2]; of the 14 cases) | serious cases with hypersensitivity reaction and dermatological findings ([2]; of the 14 cases) | cases with both hypersensitivity reaction with dermatological findings ([2]; of the 17 cases) | cases of hypersensitivity reaction without dermatological findings ([2]; of the 17 cases, non-serious) | cases with only dermatological findings ([2]; of the 17 cases, non-serious) | cases of hypersensitivity reaction and/or dermatological findings with evidence for possible causal relationship ([2]; reported spontaneously (6) or after solicitation (11), through 10 Oct. 2017) | effect on uptake through VMAT1 (human VMAT1 transporter) | plasma half-life of metabolite [1] | severe hypersensitivity or dermatological reactions suggesting Stevens Johnson Syndrome, Toxic Epidermal Necrolysis, or Drug Rash with Eosinophilia and Systemic Symptoms ([2]; through 10 Oct. 2017) | ptosis [3] | serum prolactin levels [4]
1 | COc1cc2c(cc1OC)[C@H]1C[C@@H](OC(=O)[C@@H](N)C(C)(C)O)[C@H](CC(C)C)CN1CC2 [NBI-136110] | no significant inhibitory activity | – | – | – | – | – | – | no significant effect on the uptake of monoamines through VMAT1 | half-lives similar to VBZ | – | – | –
2 | COC(=O)[C@H]1[C@H]2C[C@@H]3c4[nH]c5cc(OC)ccc5c4CCN3C[C@H]2C[C@@H](OC(=O)c2cc(OC)c(OC)c(OC)c2)[C@@H]1OC [reserpine, reference compound] | – | – | – | – | – | – | – | substantially inhibited uptake through VMAT1 | – | – | – | –
3 | COc1cc2c(cc1OC)[C@H]1C[C@@H](O)[C@H](CC(C)C)CN1CC2 [R,R,R-DHTBZ, (2R, 3R,11bR)-3-isobutyl-9,10-dimethoxy-1,3,4,6,7,11b-hexahydro-2H-pyrido[2,1-a]isoquinolin-2-ol] | no significant inhibitory activity | – | – | – | – | – | – | no significant effect on the uptake of monoamines through VMAT1 | half-lives similar to VBZ | – | induced ptosis in an equivalent manner | induced a similar increase in serum prolactin levels as TBZ

Second part, led by results:

Row | inhibitory activity on uptake through VMAT1 (human VMAT1 transporter) | non-serious cases with hypersensitivity reaction and dermatological findings ([2]; of the 14 cases) | serious cases with hypersensitivity reaction and dermatological findings ([2]; of the 14 cases) | cases with both hypersensitivity reaction with dermatological findings ([2]; of the 17 cases) | cases of hypersensitivity reaction without dermatological findings ([2]; of the 17 cases, non-serious) | cases with only dermatological findings ([2]; of the 17 cases, non-serious) | cases of hypersensitivity reaction and/or dermatological findings with evidence for possible causal relationship ([2]; reported spontaneously (6) or after solicitation (11), through 10 Oct. 2017) | Compound | effect on uptake through VMAT1 (human VMAT1 transporter) | plasma half-life of metabolite [1] | severe hypersensitivity or dermatological reactions suggesting Stevens Johnson Syndrome, Toxic Epidermal Necrolysis, or Drug Rash with Eosinophilia and Systemic Symptoms ([2]; through 10 Oct. 2017) | ptosis [3] | serum prolactin levels [4]
4 | no significant inhibitory activity | 9 cases | 5 cases | 14 cases | 2 cases | 1 case | 17 cases | COc1cc2c(cc1OC)[C@H]1C[C@@H](OC(=O)[C@@H](N)C(C)C)[C@H](CC(C)C)CN1CC2 [Valbenazine, (S)-2-amino-3-methyl-butyric acid (2R, 3R,11bR)-3-isobutyl-9,10-dimethoxy-1,3,4,6,7,11b-hexahydro-2H-pyrido[2,1-a]isoquinolin-2-yl ester] | no significant effect on the uptake of monoamines through VMAT1 | – | no cases | induced ptosis in an equivalent manner | –
5 | no significant inhibitory activity | – | – | – | – | – | – | COc1cc2c(cc1OC)C1CC(=O)C(CC(C)C)CN1CC2 (stereo not shown) [TBZ, Tetrabenazine, reference compound] | no significant effect on the uptake of monoamines through VMAT1 | – | – | induced ptosis in an equivalent manner | –
